Test results as given in BindingDB's records for doi:10.1016/j.bmcl.2009.06.075 (Pfizer, 2009).

assay: Antagonist activity at human P2Y12 receptor assessed as inhibition of ADP-induced platelet-rich plasma aggregation by turbidimetric method

| SMILES | IC50 [µM] |
| --- | --- |
| CCOC(=O)N1CCN(C(=O)[C@H](CCC(=O)O)NC(=O)c2cc(NCCOC)cc(-c3ccccc3)n2)CC1 [(S)-5-(4-(ethoxycarbonyl)piperazin-1-yl)-4-(4-(2-methoxyethylamino)-6-phenylpicolinamido)-5-oxopentanoic acid] | 14 |
| CCOC(=O)N1CCN(C(=O)[C@H](CCC(=O)O)NC(=O)c2cc(OCC3CCNCC3)cc(-c3ccccc3)n2)CC1 [(S)-5-(4-(ethoxycarbonyl)piperazin-1-yl)-5-oxo-4-(6-phenyl-4-(piperidin-4-ylmethoxy)picolinamido)pentanoic acid] | 4 |
| CCOC(=O)N1CCN(C(=O)[C@H](CCC(=O)O)NC(=O)c2cc(OC3CCNCC3)cc(-c3ccccc3)n2)CC1 [(S)-5-(4-(ethoxycarbonyl)piperazin-1-yl)-5-oxo-4-(6-phenyl-4-(piperidin-4-yloxy)picolinamido)pentanoic acid] | 1.9 |
| CCCNc1cc(C(=O)N[C@@H](CCC(=O)O)C(=O)N2CCN(C(=O)OCC)CC2)nc(-c2ccccc2)c1 [(S)-5-(4-(ethoxycarbonyl)piperazin-1-yl)-5-oxo-4-(6-phenyl-4-(propylamino)picolinamido)pentanoic acid] | 28 |
| CCOC(=O)N1CCN(C(=O)[C@H](CCC(=O)O)NC(=O)c2cc(NC3CCOCC3)cc(-c3ccccc3)n2)CC1 [(S)-5-(4-(ethoxycarbonyl)piperazin-1-yl)-5-oxo-4-(6-phenyl-4-(tetrahydro-2H-pyran-4-ylamino)picolinamido)pentanoic acid] | 21 |
| CCCCCCCOC(=O)N1CCN(C(=O)[C@H](CCC(=O)O)NC(=O)c2cccc(-c3ccccc3)n2)CC1 [(S)-5-(4-(heptyloxycarbonyl)piperazin-1-yl)-5-oxo-4-(6-phenylpicolinamido)pentanoic acid] | 56 |
| CCCCCOC(=O)N1CCN(C(=O)[C@H](CCC(=O)O)NC(=O)c2cccc(-c3ccccc3)n2)CC1 [(S)-5-oxo-5-(4-(pentyloxycarbonyl)piperazin-1-yl)-4-(6-phenylpicolinamido)pentanoic acid] | 15 |

Next, values leading:

| IC50 [µM] | SMILES |
| --- | --- |
| 7.6 | CCOC(=O)N1CCN(C(=O)[C@H](CCC(=O)O)NC(=O)c2cc(N(C)CCS(C)(=O)=O)cc(-c3ccccc3)n2)CC1 [(S)-5-(4-(ethoxycarbonyl)piperazin-1-yl)-4-(4-(methyl(2-(methylsulfonyl)ethyl)amino)-6-phenylpicolinamido)-5-oxopentanoic acid] |
| 39 | CCOC(=O)N1CCN(C(=O)[C@H](CCC(=O)O)NC(=O)c2cc(OC)cc(-c3ccccc3)n2)CC1 [(S)-5-(4-(ethoxycarbonyl)piperazin-1-yl)-4-(4-methoxy-6-phenylpicolinamido)-5-oxopentanoic acid] |
| 8.5 | CCOC(=O)N1CCN(C(=O)[C@H](CCC(=O)O)NC(=O)c2cc(NCC3CCNCC3)cc(-c3ccccc3)n2)CC1 [(S)-5-(4-(ethoxycarbonyl)piperazin-1-yl)-5-oxo-4-(6-phenyl-4-(piperidin-4-ylmethylamino)picolinamido)pentanoic acid] |
| 7.6 | CCCCCCOC(=O)N1CCN(C(=O)[C@H](CCC(=O)O)NC(=O)c2cc(N3CCC(COC)CC3)cc(-c3ccccc3)n2)CC1 [(S)-5-(4-(hexyloxycarbonyl)piperazin-1-yl)-4-(4-(4-(methoxymethyl)piperidin-1-yl)-6-phenylpicolinamido)-5-oxopentanoic acid] |
| 6.4 | CCCCCCOC(=O)N1CCN(C(=O)[C@H](CCC(=O)O)NC(=O)c2cc(N3CCC(O)CC3)cc(-c3ccccc3)n2)CC1 [(S)-5-(4-(hexyloxycarbonyl)piperazin-1-yl)-4-(4-(4-hydroxypiperidin-1-yl)-6-phenylpicolinamido)-5-oxopentanoic acid] |
| 19 | CCCCCCOC(=O)N1CCN(C(=O)[C@H](CCC(=O)O)NC(=O)c2cccc(-c3ccccc3)n2)CC1 [(S)-5-(4-(hexyloxycarbonyl)piperazin-1-yl)-5-oxo-4-(6-phenylpicolinamido)pentanoic acid] |
| 20.1 | COCCOc1cc(C(=O)N[C@@H](CCC(=O)O)C(=O)N2CCN(C(=O)OC(C)C)CC2)nc(-c2ccccc2)c1 [(S)-5-(4-(isopropoxycarbonyl)piperazin-1-yl)-4-(4-(2-methoxyethoxy)-6-phenylpicolinamido)-5-oxopentanoic acid] |
| > 100 | COC(=O)N1CCN(C(=O)[C@H](CCC(=O)O)NC(=O)c2cccc(-c3ccccc3)n2)CC1 [(S)-5-(4-(methoxycarbonyl)piperazin-1-yl)-5-oxo-4-(6-phenylpicolinamido)pentanoic acid] |
